The subject of assay [1] is everted cardiac stomach of A. rubens. The assay is described as follows: In vivo retraction of everted cardiac stomach. Further details: species or system Asterias rubens. To be noted: 10 µL of 10^-4 M injected, words. The text has this: Therefore, we performed experiments to investigate whether ArBN causes cardiac stomach retraction in A. rubens when injected in vivo. A description of the methods employed for investigation of in vivo effects of ArBN on the everted cardiac stomach of A. rubens is included in SI Appendix, SI Methods. […]
foot preparations. Having determined that ArBN had effects on preparations when tested at a high concentration (10^-6 M), then dose-response data for this peptide were obtained with final concentrations in the organ bath ranging from 10^-10 M to 10^-6 M. Two types of tests were performed when obtaining dose-response data for ArBN:
Test type 1: Here the preparation was washed thoroughly with seawater after adding ArBN to the organ at different concentrations. […]
The contraction effect of NGFFYamide (10^-7 M) or ACh (10^-5 M) was defined as 100% and the effects of ArBN were calculated as a percentage of the effect of NGFFYamide or ACh. […]
Analysis of the in vivo effects of ArBN on the everted cardiac stomach of A. rubens The physiological status of the starfish (~8 cm in diameter) tested was normalized by a 7-day starvation period. […] Then, the starfish was firstly injected with 10 µl of distilled water (negative control) and video recorded using a camera (Canon EOS 700D) for 7 min. Then, the same starfish was injected with NGFFYamide (positive control) or ArBN and video recorded for 7 min. […]

The test system of assay [2] is cardiac stomach preparations. To be noted: cited from earlier work. How it is done:
Based on the expression of ArBNP in the cardiac stomach and tube feet of A. rubens, experiments were performed to investigate effects of ArBN on in vitro preparations of these organs. […] In experiments where cardiac stomach preparations were washed in between application of ArBN at different ... || Starfish (A. rubens) feed by everting their cardiac stomach out of the mouth over the digestible soft tissues of prey (e.g., mussels) and when feeding is completed, the stomach is retracted back into the central disk region of the body ([45]). […] Discovery of neuropeptides that exert excitatory or inhibitory effects on the cardiac stomach in vitro is of interest with respect to the unusual feeding behavior of A. rubens and other starfish. When starfish feed on bivalve mollusks such as mussels, they use the collective pulling power of tube feet loca ...

The test system of assay [3] is A. rubens feeding behavior. To be noted: vs water; cited from earlier work. As for the experimental part:
Based on the effects of NGFFYamide, ArSK/CCK1, and ArSK/CCK2 in triggering a process associated with termination of feeding behavior—cardiac stomach retraction—the effects of neuropeptides on feeding behavior of starfish have also been investigated. In these experiments starfish were starved and then presented with prey (a mussel) in a testing tank and the time taken to touch, enclose, and then consume the mussel was measured.

Assay [4] deals with everted cardiac stomach of A. rubens. To be noted: cited from earlier work. An excerpt: Starfish (A. rubens) feed by everting their cardiac stomach out of the mouth over the digestible soft tissues of prey (e.g., mussels) and when feeding is completed, the stomach is retracted back into the central disk region of the body ([45]). […] Discovery of neuropeptides that exert excitatory or inhibitory effects on the cardiac stomach in vitro is of interest with respect to the unusual feeding behavior of A. rubens and other starfish. When starfish feed on bivalve mollusks such as mussels, they use the collective pulling power of tube feet loca ...

In assay [5] the test system is BB2 receptor (GRP-R). Further details: method as in PMID 1707129, PMID 1848080, PMID 1671171, PMID 1655761, PMID 31593737. To be noted: mammals; cited from earlier work.
Assay [6] relates to fundic muscle of mice. To be noted: cited from earlier work. An excerpt: (§1) The functional characterization of ArBN in A. rubens provides insights into the comparative physiology of BN-type neuropeptide signaling.
Assay [7] has as its system tube foot preparations. To be noted: cited from earlier work. As for the experimental part: Based on the expression of ArBNP in the cardiac stomach and tube feet of A. rubens, experiments were performed to investigate effects of ArBN on in vitro preparations of these organs. […] In experiments where cardiac stomach preparations were washed in between application of ArBN at different ...

The subject of assay [8] is BB1 receptor (NMB-R). To be noted: mammals; cited from earlier work. The text has this:
BN-type neuropeptides exert their effects by binding to GPCRs. In mammals, NMB and GRP act as high affinity ligands for the BB1 receptor (NMB-R) and the BB2 receptor (GRP-R), respectively, and orthologs of these receptors have been identified in nonmammalian vertebrates ([20]–[24]). […] BN-type neuropeptides are involved in regulation of a variety of physiological and behavioral processes in mammals/vertebrates, including t ...

Assay [9] relates to GPCR activated by BN-type neuropeptide. To be noted: Branchiostoma japonicum; cited from earlier work. An excerpt:
Insights into the evolutionary history of BN-type neuropeptide signaling have been obtained from phylogenetic analysis of genome sequence data. A gene encoding a BN-type neuropeptide precursor was identified in the invertebrate chordate Branchiostoma floridae [subphylum Cephalochordata; ([4])] and, subsequently, experimental characterization of BN-type neuropeptide signaling in the cephalochordate Branchiostoma japonicum has been reported ([24]). A GPCR that is activated by the BN-type neuropeptide DKGQEHWQYGHWY-NH2 was identified. Furthermore, expression of the gene encoding this neuropeptide ...

The test system of assay [10] is intestinal smooth muscle from caimans. To be noted: cited from earlier work.
From the text: as §1

Entries after “also recorded” stand apart in the source; their conditions may differ. Ends that are not written are not given here.

This is an account of results in paper PMC12002301, “Discovery and functional characterization of a bombesin-type neuropeptide signaling system in an invertebrate” (Proceedings of the National Academy of Sciences of the …, 2025).

For NGFFYamide [positive control], the cardiac stomach retraction result in assay [1] is listed as “caused cardiac stomach retraction”. Besides, the “effect on cardiac stomach preparations in vitro” value in assay [2] is “causes contraction of cardiac stomach preparations in vitro; also recorded: triggers cardiac stomach contraction in vitro; also recorded: cause cardiac stomach contraction in vitro”. In assay [3], the “time taken to enclose a mussel” value was “increase in the time taken for starfish to touch and enclose a mussel”; the “time taken to touch a mussel” value was “increase in the time taken for starfish to touch”. Further, the “cardiac stomach retraction in vivo” value in assay [4] is on record as “retraction in vivo; also recorded: trigger retraction of the everted cardiac stomach”.
In the case of “GRP: BN-like peptide identified in the porcine gut (APVSVGGGTVLAKMYPRGNHWAVGHLM; ends and bridges not checked; UniProt P63153 24-50, looked up)”, the “affinity for BB2 receptor (GRP-R)” value in [5] is listed as “high affinity”. For the same molecule, in [6], the “contraction of fundic muscle” value is “dose-dependent contraction”.
On to `CC(=O)OCC[N+](C)(C)C` [ACh, acetylcholine], for which, in [7], the “effect on tube foot preparations in vitro” value was “causes contraction of tube foot preparations in vitro”.
Turning to “NMB: ranatensin-like peptide identified in the porcine spinal cord”, in assay [8], the “affinity for BB1 receptor (NMB-R)” value was “high affinity”. The “contraction of fundic muscle” value in assay [6] is on record as “dose-dependent contraction”.
As to “DKGQEHWQYGHWY-NH2 [BN-type neuropeptide of the cephalochordate Branchiostoma japonicum]”, in [9], the GPCR activation entry is “activated”.
In the case of “pQQRLGNQWAVGHLM-NH2 [BN, peptide first isolated from the skin of the frog Bombina bombina]”, the “effect on intestinal smooth muscle” value in assay [10] is “excitatory effect”.
